Experimental data as given in PubChem BioAssay AID2060624 (Molecular Pharmacology Branch, DTP, NCI, 2025).

Test system: 217524-143-R1-J4-PDC spheroids with HUVEC/MSC, viability
Assay: Anticancer human tumor 217524-143-R1-J4-PDC patient-derived pancreatic carcinoma cell line growth inhibition [CLK]
Settings: for IC50: curve of first compound; for viability, T/C: stronger effect = lower value; active = viability on the fitted dose curve at most 10% of control; inactive = the rest
Method in brief: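 Multi-cell-type spheroids combined patient-derived tumor cells with HUVEC endothelial cells and human mesenchymal stem cells. Paired agents were dosed in half-log steps down from about clinical Cmax, or from 10 microM where Cmax was unknown.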

[1] = second compound 0.0316 µM, first compound 0.0316 µM
[2] = second compound 0.0316 µM, first compound 0.1 µM
[3] = second compound 0.0316 µM, first compound 0.316 µM
[4] = second compound 0.0316 µM, first compound 1 µM
[5] = second compound 0.0316 µM, first compound 3.16 µM
[6] = second compound 0.0316 µM, first compound 10 µM
[7] = second compound 0.1 µM, first compound 0.0316 µM
[8] = second compound 0.1 µM, first compound 0.1 µM
[9] = second compound 0.1 µM, first compound 0.316 µM
[10] = second compound 0.1 µM, first compound 1 µM
[11] = second compound 0.1 µM, first compound 3.16 µM
[12] = second compound 0.1 µM, first compound 10 µM
[13] = second compound 0.316 µM, first compound 0.0316 µM
[14] = second compound 0.316 µM, first compound 0.1 µM
[15] = second compound 0.316 µM, first compound 0.316 µM
[16] = second compound 0.316 µM, first compound 1 µM
[17] = second compound 0.316 µM, first compound 3.16 µM
[18] = second compound 0.316 µM, first compound 10 µM
[19] = second compound 1 µM, first compound 0.0316 µM
[20] = second compound 1 µM, first compound 0.1 µM
[21] = second compound 1 µM, first compound 0.316 µM
[22] = second compound 1 µM, first compound 1 µM
[23] = second compound 1 µM, first compound 3.16 µM
[24] = second compound 1 µM, first compound 10 µM
[25] = second compound 3.16 µM, first compound 0.0316 µM
[26] = second compound 3.16 µM, first compound 0.1 µM
[27] = second compound 3.16 µM, first compound 0.316 µM
[28] = second compound 3.16 µM, first compound 1 µM
[29] = second compound 3.16 µM, first compound 3.16 µM
[30] = second compound 3.16 µM, first compound 10 µM
[31] = second compound 10 µM, first compound 0.0316 µM
[32] = second compound 10 µM, first compound 0.1 µM
[33] = second compound 10 µM, first compound 0.316 µM
[34] = second compound 10 µM, first compound 1 µM
[35] = second compound 10 µM, first compound 3.16 µM
[36] = second compound 10 µM, first compound 10 µM
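Also: spheroids exposed to agents for seven days before reading.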
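For viability, T/C in this document: 100% = DMSO vehicle control viability.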

C#Cc1c(F)ccc2cc(O)cc(-c3ncc4c(N5CC6CCC(C5)N6)nc(OCC56CCCN5CC(F)C6)nc4c3F)c12 (stereo not drawn) + CNC(=O)c1ccc(Nc2nc(OC3CCCC3)c3c(-c4ccc5nc(C)oc5c4)c[nH]c3n2)c(OC)c1
inactive: viability, T/C [1] 84.3% | viability, T/C [2] 98.2% | viability, T/C [3] 90.8% | viability, T/C [4] 101% | viability, T/C [5] 89.4% | viability, T/C [6] 69% | viability, T/C [7] 47.5% | viability, T/C [8] 39.2% | viability, T/C [9] 53.6% | viability, T/C [10] 42.4% | viability, T/C [11] 44.5% | viability, T/C [12] 30.8% | viability, T/C [13] 38.5% | viability, T/C [14] 50.3% | viability, T/C [15] 38.2% | viability, T/C [16] 40.9% | viability, T/C [17] 38.7% | viability, T/C [18] 24.3% | viability, T/C [19] 33.1% | viability, T/C [20] 30% | viability, T/C [21] 26.1% | viability, T/C [22] 35.5% | viability, T/C [23] 24.5% | viability, T/C [24] 18.9% | viability, T/C [25] 29.1% | viability, T/C [26] 29.5% | viability, T/C [27] 32.6% | viability, T/C [28] 26.7% | viability, T/C [29] 26.2% | viability, T/C [30] 19.4% | viability, T/C [31] 26.3% | viability, T/C [32] 24.2% | viability, T/C [33] 27.8% | viability, T/C [34] 23.4% | viability, T/C [35] 24.9% | viability, T/C [36] 19.7%
< 31.6 nM: IC50 (second compound 0.1 µM) | IC50 (second compound 0.316 µM) | IC50 (second compound 1 µM) | IC50 (second compound 3.16 µM) | IC50 (second compound 10 µM)
> 10000 nM: IC50 (second compound 0.0316 µM)

C=C(F)C(=O)N1CCN(c2nc(OCC3CCCN3C)nc3c2CCN(c2cccc4cccc(Cl)c24)C3)CC1CC#N (stereo not drawn) + CNC(=O)c1ccc(Nc2nc(OC3CCCC3)c3c(-c4ccc5nc(C)oc5c4)c[nH]c3n2)c(OC)c1
< 31.6 nM: IC50 (second compound 0.1 µM) | IC50 (second compound 0.316 µM) | IC50 (second compound 1 µM) | IC50 (second compound 3.16 µM) | IC50 (second compound 10 µM)
inactive: viability, T/C [1] 80.1% | viability, T/C [2] 77.7% | viability, T/C [3] 97.1% | viability, T/C [4] 85.7% | viability, T/C [5] 104% | viability, T/C [7] 46.5% | viability, T/C [8] 43% | viability, T/C [9] 34.7% | viability, T/C [10] 45.3% | viability, T/C [11] 37.9% | viability, T/C [13] 39.3% | viability, T/C [14] 42.9% | viability, T/C [15] 41.9% | viability, T/C [16] 28.2% | viability, T/C [17] 28.2% | viability, T/C [19] 32.5% | viability, T/C [20] 33.8% | viability, T/C [21] 30.9% | viability, T/C [22] 23.4% | viability, T/C [23] 21.8% | viability, T/C [25] 27.8% | viability, T/C [26] 40.8% | viability, T/C [27] 25.6% | viability, T/C [28] 23.8% | viability, T/C [29] 19.6% | viability, T/C [31] 26.5% | viability, T/C [32] 22.6% | viability, T/C [33] 27.6% | viability, T/C [34] 25.4% | viability, T/C [35] 18.5%
5260 nM: IC50 (second compound 0.0316 µM)
active: viability, T/C [6] 0.48% | viability, T/C [12] 0.82% | viability, T/C [18] 1.22% | viability, T/C [24] 0.35% | viability, T/C [30] 0.34% | viability, T/C [36] 0.42%

C=CC(=O)N1CCN(c2nc(=O)n(-c3c(C)ccnc3C(C)C)c3nc(-c4c(O)cccc4F)c(F)cc23)C(C)C1 (stereo not drawn) + CNC(=O)c1ccc(Nc2nc(OC3CCCC3)c3c(-c4ccc5nc(C)oc5c4)c[nH]c3n2)c(OC)c1
inactive: viability, T/C [1] 99.7% | viability, T/C [2] 96.5% | viability, T/C [3] 82.2% | viability, T/C [4] 102% | viability, T/C [5] 123% | viability, T/C [6] 118% | viability, T/C [7] 44.1% | viability, T/C [8] 47.4% | viability, T/C [9] 41.4% | viability, T/C [10] 49.9% | viability, T/C [11] 58.5% | viability, T/C [12] 55.8% | viability, T/C [13] 34.6% | viability, T/C [14] 31.3% | viability, T/C [15] 50.8% | viability, T/C [16] 41.4% | viability, T/C [17] 49% | viability, T/C [18] 43.4% | viability, T/C [19] 24.7% | viability, T/C [20] 27.6% | viability, T/C [21] 32.8% | viability, T/C [22] 39.2% | viability, T/C [23] 36.4% | viability, T/C [24] 30% | viability, T/C [25] 24.9% | viability, T/C [26] 29.8% | viability, T/C [27] 31% | viability, T/C [28] 30.2% | viability, T/C [29] 36.8% | viability, T/C [30] 27.9% | viability, T/C [31] 27.9% | viability, T/C [32] 27.9% | viability, T/C [33] 31.7% | viability, T/C [34] 31.9% | viability, T/C [35] 34.2% | viability, T/C [36] 29.1%
> 10000 nM: IC50 (second compound 0.0316 µM)
< 31.6 nM: IC50 (second compound 0.1 µM) | IC50 (second compound 0.316 µM) | IC50 (second compound 1 µM) | IC50 (second compound 3.16 µM) | IC50 (second compound 10 µM)

CC(CO)NC(=O)c1cc(-c2ccc(Cl)cc2)nn(-c2cnn(C)c2)c1=O (stereo not drawn) + CNC(=O)c1ccc(Nc2nc(OC3CCCC3)c3c(-c4ccc5nc(C)oc5c4)c[nH]c3n2)c(OC)c1
< 31.6 nM: IC50 (second compound 0.1 µM) | IC50 (second compound 0.316 µM) | IC50 (second compound 1 µM) | IC50 (second compound 3.16 µM) | IC50 (second compound 10 µM)
inactive: viability, T/C [1] 101% | viability, T/C [2] 81.4% | viability, T/C [3] 86.5% | viability, T/C [4] 105% | viability, T/C [5] 106% | viability, T/C [6] 84.2% | viability, T/C [7] 44.8% | viability, T/C [8] 42.2% | viability, T/C [9] 46.1% | viability, T/C [10] 51.3% | viability, T/C [11] 47.4% | viability, T/C [12] 43.5% | viability, T/C [13] 48.2% | viability, T/C [14] 39.8% | viability, T/C [15] 44.8% | viability, T/C [16] 40.1% | viability, T/C [17] 38.9% | viability, T/C [18] 38.7% | viability, T/C [19] 26.2% | viability, T/C [20] 30.1% | viability, T/C [21] 26.2% | viability, T/C [22] 32.7% | viability, T/C [23] 28.3% | viability, T/C [24] 25% | viability, T/C [25] 33.1% | viability, T/C [26] 26.2% | viability, T/C [27] 32.4% | viability, T/C [28] 31.8% | viability, T/C [29] 28.8% | viability, T/C [30] 20.9% | viability, T/C [31] 31.3% | viability, T/C [32] 25.7% | viability, T/C [33] 24.1% | viability, T/C [34] 24.4% | viability, T/C [35] 24.7% | viability, T/C [36] 20.6%
> 10000 nM: IC50 (second compound 0.0316 µM)
